{
  "source": "patent US20230413819A1",
  "about": "“METHODS FOR CONTROLLING FLEA AND TICK INFESTATIONS IN A MAMMAL” (In the Bowl Animal Health, Inc., priority 2021, published 2023)",
  "key": {"[1]": {"test": "Plasma concentration of mivorilaner, 0.75 mg/kg daily oral (Examples 4 and 10)", "assay_type": "in vivo, dogs", "procedure": "Each dog in the treatment group is to receive by mouth a liquid formulation of isoxazoline. The dosage of 0.75 mg/kg is to be administered to the dogs on each of days 0-29.\nDogs in the control group are not to receive isoxazoline or any other tick control treatment. Each dog in the treatment group is to be offered its daily ration (dry food) and the individual doses of liquid formulation are to be administered after the individual dog has eaten at least 25% of its total daily ration. After receiving the dose of isoxazoline, the dogs are to be allowed to continue eating. This mimics incorporating the isoxazoline in feed. Each dog in the treatment group and the control group is to be experimentally infested with 50 adult ticks on test days 5, 12, 19, 28 and 35. Comb counts for live and moribund attached ticks are to be conducted on days 7, 14, 21, 30 and 37.\nDogs in the control group are not to receive isoxazoline or any other flea control treatment. Each dog in the treatment group is to be offered its daily ration (dry food) and the individual doses of liquid formulation are to be administered after the individual dog has eaten at least 25% of its total daily ration. After receiving the dose of isoxazoline, the dogs are to be allowed to continue eating. This mimics incorporating the isoxazoline in feed. Each dog in the treatment group and the control group is to be experimentally infested with 100 unfed adult fleas on test days 2, 5, 12, 20 and 35. Comb counts for live adult fleas are to be conducted on days 4, 7, 14, 21 and 37."}, "[2]": {"test": "Average plasma concentration of mivorilaner, various daily oral doses (Examples 5 and 11)", "assay_type": "in vivo, dogs", "conditions": "dog, fed; for concentration at 0 h: 0 h after initial dose; for concentration at 72 h: 72 h after initial dose; for concentration at 120 h: 120 h after initial dose; for concentration at 168 h: 168 h after initial dose; for concentration at 336 h: 336 h after initial dose; for concentration at 504 h: 504 h after initial dose; for concentration at 720 h: 720 h after initial dose; for concentration at 888 h: 888 h after initial dose; for concentration at 1056 h: 1056 h after initial dose; for concentration at 1224 h: 1224 h after initial dose; for concentration at 1440 h: 1440 h after initial dose"}},
  "note": "“And” between values parts separate entries of the source, which are not always exact repeats. Equal entries are not always repeated.",
  "data": [
    {"smiles": "O=C(CNC(=O)c1sc(C2=NO[C@@](c3cc(Cl)c(F)c(Cl)c3)(C(F)(F)F)C2)c2c1CCC2)NCC(F)F", "note": "[mivorilaner, 3-[(5S)-5-(3,5-dichloro-4-fluorophenyl)-5-(trifluoromethyl)-4,5-dihydroisoxazol-3-yl]-N-[2-[(2,2-difluoroethyl)amino]-2-oxoethyl]-5,6-dihydro-4H-cyclopenta[c]thiophene-1-carboxamide]", "values": [
      {"measurement": "Mivorilaner Concentration, individual canines", "setting": "[1]; 0.75 mg/kg/day oral days 0-29, Day 3, 0.75 mg/kg/day", "result": "579 ng/mL and 660 ng/mL and 800 ng/mL and 798 ng/mL and 556 ng/mL and 648 ng/mL"},
      {"measurement": "Mivorilaner Concentration, individual canines", "setting": "[1]; 0.75 mg/kg/day oral days 0-29, Day 7, 0.75 mg/kg/day", "result": "994 ng/mL and 1470 ng/mL and 1620 ng/mL and 1660 ng/mL and 1330 ng/mL"},
      {"measurement": "Mivorilaner Concentration, individual canines", "setting": "[1]; 0.75 mg/kg/day oral days 0-29, Day 14, 0.75 mg/kg/day", "result": "1560 ng/mL and 2120 ng/mL and 2370 ng/mL and 2060 ng/mL and 1990 ng/mL and 2530 ng/mL"},
      {"measurement": "Mivorilaner Concentration, individual canines", "setting": "[1]; 0.75 mg/kg/day oral days 0-29, Day 21, 0.75 mg/kg/day", "result": "2450 ng/mL and 2720 ng/mL and 2950 ng/mL and 2660 ng/mL and 2750 ng/mL and 2820 ng/mL"},
      {"measurement": "Mivorilaner Concentration, individual canines", "setting": "[1]; 0.75 mg/kg/day oral days 0-29, Day 30, 0.75 mg/kg/day", "result": "2320 ng/mL and 2600 ng/mL and 2790 ng/mL and 2570 ng/mL and 2890 ng/mL"},
      {"measurement": "Mivorilaner Concentration, individual canines", "setting": "[1]; 0.75 mg/kg/day oral days 0-29, Day 37, 0.75 mg/kg/day", "result": "1880 ng/mL and 2010 ng/mL and 1980 ng/mL and 1750 ng/mL and 2070 ng/mL and 2410 ng/mL"},
      {"measurement": "Mivorilaner Concentration, individual canines", "setting": "[1]; 0.75 mg/kg/day oral days 0-29, Day −1 (before first dose)", "result": "BLQ"},
      {"measurement": "concentration at 30 day", "setting": "[1]; dog, po, 0.75 mg/kg/day, 0.75 mg/kg/day oral days 0-29, Day 30, read-out: Mivorilaner Concentration, individual canines", "result": 2890, "unit": "ng/mL"},
      {"measurement": "concentration at 0 h", "setting": "[2]; Group 2, 0.125 mg/kg/day oral", "result": 0, "unit": "ng/mL"},
      {"measurement": "concentration at 72 h", "setting": "[2]; Group 2, 0.125 mg/kg/day oral", "result": 136, "unit": "ng/mL"},
      {"measurement": "concentration at 120 h", "setting": "[2]; Group 2, 0.125 mg/kg/day oral", "result": 213, "unit": "ng/mL"},
      {"measurement": "concentration at 168 h", "setting": "[2]; Group 2, 0.125 mg/kg/day oral", "result": 244, "unit": "ng/mL"},
      {"measurement": "concentration at 336 h", "setting": "[2]; Group 2, 0.125 mg/kg/day oral", "result": 384, "unit": "ng/mL"},
      {"measurement": "concentration at 504 h", "setting": "[2]; Group 2, 0.125 mg/kg/day oral", "result": 404, "unit": "ng/mL"},
      {"measurement": "concentration at 720 h", "setting": "[2]; Group 2, 0.125 mg/kg/day oral", "result": 420, "unit": "ng/mL"},
      {"measurement": "concentration at 888 h", "setting": "[2]; Group 2, 0.125 mg/kg/day oral", "result": 448, "unit": "ng/mL"},
      {"measurement": "concentration at 1056 h", "setting": "[2]; Group 2, 0.125 mg/kg/day oral", "result": 428, "unit": "ng/mL"},
      {"measurement": "concentration at 1224 h", "setting": "[2]; Group 2, 0.125 mg/kg/day oral", "result": 486, "unit": "ng/mL"},
      {"measurement": "concentration at 1440 h", "setting": "[2]; Group 2, 0.125 mg/kg/day oral", "result": 898, "unit": "ng/mL"},
      {"measurement": "concentration at 0 h", "setting": "[2]; Group 3, 0.25 mg/kg/day oral", "result": 0, "unit": "ng/mL"},
      {"measurement": "concentration at 72 h", "setting": "[2]; Group 3, 0.25 mg/kg/day oral", "result": 283, "unit": "ng/mL"},
      {"measurement": "concentration at 120 h", "setting": "[2]; Group 3, 0.25 mg/kg/day oral", "result": 450, "unit": "ng/mL"},
      {"measurement": "concentration at 168 h", "setting": "[2]; Group 3, 0.25 mg/kg/day oral", "result": 579, "unit": "ng/mL"},
      {"measurement": "concentration at 336 h", "setting": "[2]; Group 3, 0.25 mg/kg/day oral", "result": 883, "unit": "ng/mL"},
      {"measurement": "concentration at 504 h", "setting": "[2]; Group 3, 0.25 mg/kg/day oral", "result": 878, "unit": "ng/mL"},
      {"measurement": "concentration at 720 h", "setting": "[2]; Group 3, 0.25 mg/kg/day oral", "result": 1020, "unit": "ng/mL"},
      {"measurement": "concentration at 888 h", "setting": "[2]; Group 3, 0.25 mg/kg/day oral", "result": 1000, "unit": "ng/mL"},
      {"measurement": "concentration at 1056 h", "setting": "[2]; Group 3, 0.25 mg/kg/day oral", "result": 945, "unit": "ng/mL"},
      {"measurement": "concentration at 1224 h", "setting": "[2]; Group 3, 0.25 mg/kg/day oral", "result": 1040, "unit": "ng/mL"},
      {"measurement": "concentration at 1440 h", "setting": "[2]; Group 3, 0.25 mg/kg/day oral", "result": 999, "unit": "ng/mL"},
      {"measurement": "concentration at 0 h", "setting": "[2]; Group 4, 0.5 mg/kg/day oral", "result": 0, "unit": "ng/mL"},
      {"measurement": "concentration at 72 h", "setting": "[2]; Group 4, 0.5 mg/kg/day oral", "result": 474, "unit": "ng/mL"},
      {"measurement": "concentration at 120 h", "setting": "[2]; Group 4, 0.5 mg/kg/day oral", "result": 763, "unit": "ng/mL"},
      {"measurement": "concentration at 168 h", "setting": "[2]; Group 4, 0.5 mg/kg/day oral", "result": 888, "unit": "ng/mL"},
      {"measurement": "concentration at 336 h", "setting": "[2]; Group 4, 0.5 mg/kg/day oral", "result": 1460, "unit": "ng/mL"},
      {"measurement": "concentration at 504 h", "setting": "[2]; Group 4, 0.5 mg/kg/day oral", "result": 1630, "unit": "ng/mL"},
      {"measurement": "concentration at 720 h", "setting": "[2]; Group 4, 0.5 mg/kg/day oral", "result": 1870, "unit": "ng/mL"},
      {"measurement": "concentration at 888 h", "setting": "[2]; Group 4, 0.5 mg/kg/day oral", "result": 1990, "unit": "ng/mL"},
      {"measurement": "concentration at 1056 h", "setting": "[2]; Group 4, 0.5 mg/kg/day oral", "result": 2010, "unit": "ng/mL"},
      {"measurement": "concentration at 1224 h", "setting": "[2]; Group 4, 0.5 mg/kg/day oral", "result": 2320, "unit": "ng/mL"},
      {"measurement": "concentration at 1440 h", "setting": "[2]; Group 4, 0.5 mg/kg/day oral", "result": 2300, "unit": "ng/mL"},
      {"measurement": "concentration at 0 h", "setting": "[2]; Group 5, 1.0 mg/kg/day oral", "result": 0, "unit": "ng/mL"},
      {"measurement": "concentration at 72 h", "setting": "[2]; Group 5, 1.0 mg/kg/day oral", "result": 951, "unit": "ng/mL"},
      {"measurement": "concentration at 120 h", "setting": "[2]; Group 5, 1.0 mg/kg/day oral", "result": 1510, "unit": "ng/mL"},
      {"measurement": "concentration at 168 h", "setting": "[2]; Group 5, 1.0 mg/kg/day oral", "result": 1790, "unit": "ng/mL"},
      {"measurement": "concentration at 336 h", "setting": "[2]; Group 5, 1.0 mg/kg/day oral", "result": 2690, "unit": "ng/mL"},
      {"measurement": "concentration at 504 h", "setting": "[2]; Group 5, 1.0 mg/kg/day oral", "result": 3020, "unit": "ng/mL"}
    ]}
  ]
}
